Reference: patent US20240197728A1, “METHODS AND PHARMACEUTICAL COMPOSITIONS FOR TREATING REFRACTORY EPILEPSY” (INSERM (INSTITUT NATIONAL DE LA SANTÉ ET DE LA RECHERCHE …, priority 2021, published 2024)

System: lithium-pilocarpine model of mTLE
Experiment: Lithium-pilocarpine mouse model of mTLE, telemetric ECoG seizure detection
Format: in vivo, C57Bl6/J mice
Details: PCPZ 2 mg/kg i.p. twice daily
Procedure: Our procedures were all approved by local ethics committee (Charles Darwin, Apafis 202008050923999 v4). 8 weeks-old male C57B16/J mice were used in a pilocarpine-based model of temporal lobe epilepsy as described. In brief, animals received an intraperitoneal (ip) injection of LiCl (423 mg/kg) and scopolamine (1 mg/kg), respectively 18-24 hours and 1 hour prior to pilocarpine. Pilocarpine (75 mg/kg) was then injected ip and mice were continuously monitored for the onset of status epilepticus (SE). In mice in which the first pilocarpine injection had not triggered SE after one hour, a second injection at 20 mg/kg was performed. SE was interrupted one hour after onset by ip injection of diazepam and ketamine (both at 10 mg/kg). […] They were monitored daily for weight, behavior and were provided with enriched liquid food (Fortimel Energy®) for the first 5-7 days post SE. […]
ECoG probe implantation was performed 28 days post SE in all mice except for 1 mouse that was implanted prior to SE induction in order to monitor chronic seizure onset (FIG. 6D). […] One week after implantation, ECoG signal (0.3-160 Hz) were recorded continuously using a telemetric Octal Data Receiver (OpenSourceInstruments), amplified 100× and acquired at 512 Hz. Recordings were analyzed offline using Event Classification Processor ECP20 under NeuroArchiver 132. […]

Structure (SMILES): CN1CCN(CCCN2c3ccccc3Sc3ccc(Cl)cc32)CC1 [PCPZ, prochlorperazine]
- seizure frequency (chronic phase days 40-45 post-SE, saline group 2.86±0.83): 0.95±0.42 per day
- reduction in seizure frequency compared to saline control group (days 40-45 post-SE): 3 fold
